pEC50, pIC50: −log10 of the molar value. Like-named read-outs stand apart in the source and are kept apart here.
Experiments:
pain threshold in mice = assay: Mouse Grid Shock (pain threshold); assay type: in vivo; settings: ip, read-out: Grid shock MED
Method: The mouse grid consists of a perspex cage with wire grid bottom and a perspex lid, on which is placed a microphone sensitive to the frequency of mouse-squeak. A stimulator with motordriven potentiometer applies a sequence of square wave impulses of continuously increasing milliamperage to the grid. Frequence of impulses 20 cycles/sec., duration 5 msec. Milliamperage is recorded on a digital amperemter connected to the stimulator. Activation of the microphone by a mouse-squeak cuts off the current and the final milliamperage appear on the meter.
Five mice are used for each dose level. Each mouse serves as its own control. Prior to the administration of test substance the animals are placed on the grid one at a time, and the pain threshold is determined by increasing the current intensity until the mouse squeaks. The pain threshold may be read on the milliampermeter. Fifteen minutes and 30 minutes after administration of test substance the mice are tested again and the pain thresholds recorded.
Analgesic effect is present when the pain threshold is increased over the predosing value (control value). The results are stated as % increase in pain threshold calculated on the basis of the control value. The registration can also be done as an on-line procedure. In this case the punching instruction and punching cards will be provided automatically, and the results will be registered as a minimal effective dose (MED) determined after van der Waerden's X-test.

[1] = biological target: muscarinic cholinergic receptors; assay: 3H-PrBCM binding to muscarinic cholinergic receptors (brain); settings: rat whole brain minus cerebellum; 1.5 nM 3H-PrBCM, 30° C.
Method: ^3 --H-PrBCM binding to muscarinic cholinergic receptors
Whole brain minus cerebellum of a rat was homogenized in 10 vol icecold 0.32M sucrose, pH 7.4. The homogenate was centrifuged at 600 g for 10 minutes and the supernatant at 25000 g for 55 min. at 4° C. with rehomogenization of the pellet in 0.32M sucrose. Incubation tubes in triplicate received at 30° C. test substance and tissue suspension. After 10 min. of incubation ligand (NEN,28-44 Ci/mmol) was added (final conc. of ^3 H-PrBCM: 1.5 nM). After 15 min. of incubation the reaction was stopped by addition of sodiumthiosulphate. The samples were filtered through Whatman GF/B filters (25 mm). The tubes and filters were rinsed twice with buffer. Non-specific binding was determined in the presence of 2.5 μM atropine. IC50 values were calculated by log probit analysis.

[2] = test system: heat stimulus reaction in rats; assay: Hot Plate Test; assay type: in vivo; settings: Rattus norvegicus, sc, 0.5 h, s.c., 55° C. hot plate, 30 minutes after injection
Method: A group of 10 rats was used for each dose. Each rat was placed on a 55° C. hot plate and the reaction time in seconds was recorded from the moment the rat was placed on the plate until the rat reacted to the heat stimulus. The criteria for reaction were licking of paws, lifting of legs or jumping. The rat was removed from the plate immediately after the reaction. The rat was rejected if the reaction time was more than 10 seconds. After control testing the test substance was injected subcutaneously. The rat was tested on the hot plate 30 minutes after the injection and the reaction times were recorded. A cut-off time of 30 seconds was used. The results were expressed as mean percent effect (MPE), and ED50 values were calculated.

[3] = test system: muscarinic cholinergic receptors (guinea pig ileum); assay: Muscarinic cholinergic agonism, guinea pig ileum; assay type: cell-based; settings: Cavia porcellus; isolated guinea pig ileum, contraction, log-probit analysis; read-out: Musc. agonism ileum ED50
Method: Muscarinic cholinergic agonism, guinea pig ileum
Tyrode solution (NaCl 137 mM, KCl 2.7 mM, CaCl2 1.8 mM, MgCl2 1.1 mM, NaH2 PO4 0.32 mM, NaHCO3 4.8 mM, glucose 5.0 mM) foregassed with oxygen.
A guinea pig is killed by a blow on its head and exsanguinated. The caudal part (about 15 cm) of ileum is removed and cleaned in Tyrode solution. Three ileum pieces (2.5-3.0 cm long) are cut and placed separately in 10 ml organ baths containing Tyrode solution. Each specimen is fixed to a pin in the bottom of the organ bath and connected through a spring to a Grass FT 03 transducer (isotonic measurement). The specimens are kept under a tone of 1.0 g.
Concentration response curves to acetylcholine and test drugs are obtained by adding alternately acetylcholine and the test drugs in Tyrode solution to the both in 3-6 different concentrations. Each concentration is allowed to exert its maximal contracting effect before the tissue is washed and the next concentration is added.
From the concentration effect curves the […] values for acetylcholine and the test drugs are calculated by log-probit analysis.

[4] = test system: isoniazide-induced seizures in mice; assay: Isoniazide antagonism (convulsions); assay type: in vivo; settings: Mus musculus, ip, read-out: Isoniazide antagonism ED50
Method: Isoniazide 300 mg/kg s.c.
Five mice are used for each dose level. Immediately after administration of test substance, isoniazide 300 mg/kg is injected s.c. This dose of isoniazide induces intermittent tonic clonic seizures within 60 minutes.
The calculations are performed as an "on-line procedure" on the EDP-terminal. The results are recorded as % increase in time until convulsions occur and, ED50 values were determined.

AcCh receptors = settings: background statement; cited from earlier work
[5] = peripheral administration; cited from earlier work
[6] = cited from earlier work
[7] = peripheral administration; cited from earlier work; remark: listed apart in the source
[8] = mice, minimal effective dose, increase in pain threshold, test substance i.p. (may be tested orally)
[9] = mice, test compound i.p., isoniazide 300 mg/kg s.c., time until convulsions

| SMILES | minimal effective dose (pain threshold in mice; [8]) [µmol/kg] | pIC50 [1] | ED50 [2] [µmol/kg] | pEC50 [3] | ED50 [4, 9] [µmol/kg] | AcCh agonist (AcCh receptors) | penetration of the BBB [5] | hydrolysis of ester group in vivo [6] | central effects [7] | minimal effective dose (pain threshold in mice) [µmol/kg] | ED50 [4] [µmol/kg] |
| --- | --- | --- | --- | --- | --- | --- | --- | --- | --- | --- | --- |
| COc1noc2c1CNCC2C (racemic) [O,7-Dimethyl-THPO, 3-Methoxy-7-methyl-4,5,6,7-tetrahydroisoxazolo[4,5-c]pyridine] | 98 | 4.92 | > 98 | 4.89 | 110 |  |  |  |  |  |  |
| COC(=O)C1=CCCN(C)C1 [Arecoline, methyl 1-methyl-1,2,5,6-tetrahydropyridine-3-carboxylate] |  |  |  |  |  | AcCh agonist | capable of penetrating the BBB after peripheral administration | very rapidly hydrolyzed in vivo | very weak and frequently negligible central effects |  |  |
| COc1noc2c1CN(C)CC2 [O,5-Dimethyl-THPO, 3-Methoxy-5-methyl-4,5,6,7-tetrahydroixoxazolo[4,5-c]pyridine] | 49 | 4.57 | 99 | 6.08 | 29 |  |  |  |  |  |  |
| C=CCOc1noc2c1CNCC2 [O--Allyl-THPO, 3-Allyloxy-4,5,6,7-tetrahydroisoxazolo[4,5-c]pyridine] | 46 | 5.02 | > 92 | < 4.89 | 23 |  |  |  |  |  |  |
| c1ccc(COc2noc3c2CNCC3)cc1 [O--Benzyl-THPO, 3-Benzyloxy-4,5,6,7-tetrahydroisoxazolo[4,5-c]pyridine] | > 150 | 4.49 | > 75 | < 4.89 | 19 |  |  |  |  |  |  |
| CCCCOc1noc2c1CNCC2 [O--Butyl-THPO, 3-Butoxy-4,5,6,7-tetrahydroisoxazolo[4,5-c]pyridine] | > 170 | 4.82 | > 86 | < 4.89 | > 170 |  |  |  |  |  |  |
| CC=CCOc1noc2c1CNCC2 [O--Crotyl-THPO, 3-(2-Butenyloxy)-4,5,6,7-tetrahydroisoxazolo[4,5-c]pyridine] | 170 | 4.85 | > 87 | < 4.89 | < 43 |  |  |  |  |  |  |
| CCOc1noc2c1CN(C)CC2 [O--Ethyl-5-Methyl-THPO, 3-Ethoxy-5-methyl-4,5,6,7-tetrahydroisoxazolo[4,5-c]pyridine] | > 91 | 5.62 | > 91 | 5.80 | 41 |  |  |  |  |  |  |
| CCOc1noc2c1CNCC2 [O--Ethyl-THPO, 3-Ethoxy-4,5,6,7-tetrahydroisoxazolo[4,5-c]pyridine] | > 98 | 5.22 | > 98 | 5.47 | 7.3 |  |  |  |  |  |  |
| CC(C)COc1noc2c1CNCC2 [O--Isobutyl-THPO, 3-Isobutoxy-4,5,6,7-tetrahydroisoxazolo[4,5-c]pyridine] | > 86 | < 4.89 | > 86 | < 4.89 | 48 |  |  |  |  |  |  |
| CC(C)Oc1noc2c1CNCC2 [O--Isopropyl-THPO, 3-Isopropoxy-4,5,6,7-tetrahydroisoxazolo[4,5-c]pyridine] | > 46 | 5.46 | > 91 | < 4.89 | 19 |  |  |  |  |  |  |
| COc1noc2c1CN(Cc1ccccc1)CC2 [O--Methyl-5-Benzyl-THPO, 3-Methoxy-5-benzyl-4,5,6,7-tetrahydroisoxazolo[4,5-c]pyridine] | > 71 | < 4.30 | > 71 | < 4.89 | 71 |  |  |  |  |  |  |
| CCN1CCc2onc(OC)c2C1 [O--Methyl-5-Ethyl-THPO, 3-Methoxy-5-ethyl-4,5,6,7-tetrahydroisoxazolo[4,5-c]pyridine] | 84 | 4.82 |  | < 4.89 | 84 |  |  |  |  |  |  |
| COc1noc2c1CNCC2 [O--Methyl-THPO, 3-Methoxy-4,5,6,7-tetrahydroisoxazolo[4,5-c]pyridine] | 26 | 4.35 | 62 | 5.74 | 2.8 |  |  |  |  |  |  |
| C#CCOc1noc2c1CNCC2 [O--Propargyl-THPO, 3-(2-Propynyloxy)-4,5,6,7-tetrahydroisoxazolo[4,5-c]pyridine] | 11 | 5.24 | 86 | 5.92 | 3 |  |  |  |  |  |  |
| CCCOc1noc2c1CNCC2 [O--Propyl-THPO, 3-Propoxy-4,5,6,7-tetrahydroisoxazolo[4,5-c]pyridine] | > 91 | 5.00 | > 91 | < 4.89 | 50 |  |  |  |  |  |  |
| Oc1noc2c1CNCC2 [THPO, 3-Hydroxy-4,5,6,7-tetrahydroisoxazolo[4,5-c]pyridinium bromide, reference compound] |  |  | > 90 | < 4.89 |  |  |  |  |  | > 1500 | > 1500 |
